{
  "source": "patent US5268308A",
  "about": "“Immunoassay for pyridostigmine” (priority 1989, dated 1993)",
  "origin": "cited, not measured here",
  "system": "patients",
  "settings": "cited from earlier work",
  "data": [
    {"smiles": "CN(C)C(=O)Oc1ccc[n+](C)c1", "note": "[Pyridostigmine]", "values": [
      {"measurement": "side effect on intravenous administration", "setting": "administered intraveneously", "result": "thrombophlebitis"},
      {"measurement": "adverse muscarinic effects", "setting": "certain patients", "result": "nausea, vomitin , diarrhea, miosis, excessive salivation and sweating, abdomimal cramps, bradycardia, bronchial secretion and bronchospasm"},
      {"measurement": "toxicity relative to therapeutic levels", "setting": "clinical use", "result": "toxic at levels very close to those which produce therapeutic results"},
      {"measurement": "other side effects", "setting": "human, in vivo", "result": "generalized weakness, muscle cramps, fasciculation, hypotension"},
      {"measurement": "effect of substantial over administration", "setting": "overdose", "result": "cholinergic crisis leading to death"}
    ]}
  ]
}
